Data taken from ChEMBL document CHEMBL5034004, “Discovery of M3 Antagonist-PDE4 Inhibitor Dual Pharmacology Molecules for the Treatment of Chronic Obstructive Pulmonary Disease” (J Med Chem, 2021).

What was measured:
[1] = target: Muscarinic acetylcholine receptor M3 (Rattus norvegicus, UniProt P08483); test: Antagonist activity at muscarinic M3 receptor in rat trachea assessed as inhibition of carbachol-induced contraction; format: functional, tissue-based
[2] = Antiinflammatory activity in human PBMCs assessed as inhibition of LPS-induced TNF-alpha release measured after 18 hrs by ELISA; format: functional, tissue-based, PBMC; details: for pIC50: pbmc; for IC50: Homo sapiens, PBMC, 18 h
[3] = Kinetic solubility of compound in PBS at pH 7.4 […] incubated for 2 hrs by LC-UV and LC-MS analysis; format: physicochemical; details: read-out: Kinetic_solubility
[4] = target: Muscarinic acetylcholine receptor M3 (Homo sapiens, UniProt P20309); test: Displacement of [3H]-N-methyl Scopolamine Chloride from human M3 receptor membranes incubated for 2 hrs by scintillation counting analysis; format: cell membranes, Cell membrane
Sequence of Muscarinic acetylcholine receptor M3 (Homo sapiens, UniProt P20309) (P20309 whole entry): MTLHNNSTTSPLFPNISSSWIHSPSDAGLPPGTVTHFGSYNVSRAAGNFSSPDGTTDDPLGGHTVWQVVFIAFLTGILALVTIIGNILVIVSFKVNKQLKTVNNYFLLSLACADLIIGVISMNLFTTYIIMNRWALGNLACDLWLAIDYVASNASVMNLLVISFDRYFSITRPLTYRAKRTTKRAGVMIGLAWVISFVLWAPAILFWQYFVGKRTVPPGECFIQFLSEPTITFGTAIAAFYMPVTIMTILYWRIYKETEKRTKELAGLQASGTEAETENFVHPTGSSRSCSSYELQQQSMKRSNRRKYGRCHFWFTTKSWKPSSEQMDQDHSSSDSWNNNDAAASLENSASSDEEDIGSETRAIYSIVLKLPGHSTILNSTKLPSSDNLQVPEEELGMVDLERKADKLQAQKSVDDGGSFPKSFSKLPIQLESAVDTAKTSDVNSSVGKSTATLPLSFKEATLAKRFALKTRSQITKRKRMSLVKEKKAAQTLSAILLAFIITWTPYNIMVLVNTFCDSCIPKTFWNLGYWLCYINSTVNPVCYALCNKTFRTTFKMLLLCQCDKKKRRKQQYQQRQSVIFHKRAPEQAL

[5] = Antagonist activity at muscarinic M3 receptor in guinea pig trachea assessed as inhibition of carbachol-induced contraction; format: tissue-based, Cavia porcellus
[6] = target: 3',5'-cyclic-AMP phosphodiesterase 4B (Homo sapiens, UniProt Q07343); test: Inhibition of human recombinant PDE4B2 assessed as […] in cAMP level incubated for 2 hrs by LANCE Ultra cAMP TR-FRET assay
Sequence of 3',5'-cyclic-AMP phosphodiesterase 4B (Q07343 whole entry): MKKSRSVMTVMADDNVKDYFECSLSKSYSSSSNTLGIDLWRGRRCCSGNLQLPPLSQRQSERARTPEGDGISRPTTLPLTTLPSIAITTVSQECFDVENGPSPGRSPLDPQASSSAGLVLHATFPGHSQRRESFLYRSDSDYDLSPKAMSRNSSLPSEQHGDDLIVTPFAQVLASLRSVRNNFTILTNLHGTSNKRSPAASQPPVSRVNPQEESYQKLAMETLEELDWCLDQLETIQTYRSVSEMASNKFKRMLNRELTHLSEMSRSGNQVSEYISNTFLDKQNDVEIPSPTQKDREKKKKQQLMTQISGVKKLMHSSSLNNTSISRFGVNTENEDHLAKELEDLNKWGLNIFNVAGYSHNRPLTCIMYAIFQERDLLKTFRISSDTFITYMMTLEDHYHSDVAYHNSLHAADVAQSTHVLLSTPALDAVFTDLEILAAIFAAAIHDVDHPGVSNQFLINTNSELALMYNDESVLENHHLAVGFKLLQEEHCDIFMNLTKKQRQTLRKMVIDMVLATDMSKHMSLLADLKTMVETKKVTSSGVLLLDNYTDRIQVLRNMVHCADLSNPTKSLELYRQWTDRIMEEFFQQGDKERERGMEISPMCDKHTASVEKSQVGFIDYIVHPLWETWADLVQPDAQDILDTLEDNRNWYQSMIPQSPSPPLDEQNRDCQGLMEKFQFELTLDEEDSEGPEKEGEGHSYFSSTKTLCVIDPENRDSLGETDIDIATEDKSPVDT

[7] = target: 3',5'-cyclic phosphodiesterase; test: Inhibition of PDE4 in human U-937 cells assessed as […] in cAMP level by LANCE cAMP Assay; format: cell-based

Sequence of Muscarinic acetylcholine receptor M3 (Rattus norvegicus, UniProt P08483) (P08483 whole entry): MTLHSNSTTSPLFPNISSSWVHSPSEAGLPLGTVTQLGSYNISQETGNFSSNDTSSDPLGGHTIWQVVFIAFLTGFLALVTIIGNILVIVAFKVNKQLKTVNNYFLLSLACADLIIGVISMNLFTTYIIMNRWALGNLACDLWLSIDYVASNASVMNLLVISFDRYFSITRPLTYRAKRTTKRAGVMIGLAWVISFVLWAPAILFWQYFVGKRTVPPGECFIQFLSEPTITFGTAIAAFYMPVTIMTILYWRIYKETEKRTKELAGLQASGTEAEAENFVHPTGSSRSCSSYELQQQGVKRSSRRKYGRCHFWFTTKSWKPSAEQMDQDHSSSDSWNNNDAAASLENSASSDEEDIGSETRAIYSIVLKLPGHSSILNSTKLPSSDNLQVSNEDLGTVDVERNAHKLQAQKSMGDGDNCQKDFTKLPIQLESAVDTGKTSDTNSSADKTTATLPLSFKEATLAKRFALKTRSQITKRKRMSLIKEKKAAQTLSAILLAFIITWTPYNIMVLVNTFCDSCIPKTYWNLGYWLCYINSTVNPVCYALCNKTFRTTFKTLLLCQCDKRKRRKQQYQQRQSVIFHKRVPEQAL

Compound	Ki [4]	pIC50 [5]	IC50 [6]	IC50 [2]	also measured
COc1ccc([C@H](Cc2c(Cl)c[n+]([O-])cc2Cl)OC(=O)c2ccc(CNC(C(=O)OCC3CCN(C)CC3)c3ccccc3)s2)cc1OC (stereo in doubt; 92h)					IC50 [1]: 5.01 nM; pIC50 [2]: 8.8
COc1ccc([C@H](Cc2c(Cl)c[n+]([O-])cc2Cl)OC(=O)c2ccc(CNC(C(=O)OC[C@H]3CCN3C)c3ccccc3)s2)cc1OC (stereo in doubt; 92i)					IC50 [1]: 5.01 nM
O=C(O[C@@H](Cc1c(Cl)c[n+]([O-])cc1Cl)c1ccc(OC(F)F)c(OCC2CC2)c1)c1ccc(CN(C(=O)O[C@H]2CN3CCC2CC3)c2ccccc2F)s1	0.2 nM	8.2			solubility kinetic at 2 h [3]: < 5 µM
COc1ccc([C@H](Cc2c(Cl)c[n+]([O-])cc2Cl)OC(=O)c2ccc(CNC(C(=O)OCCN(C)C)c3ccccc3)s2)cc1OC (stereo in doubt; 91j)	12.6 nM		1 nM	3.16 nM	IC50 [1]: 79.4 nM
COc1ccc([C@H](Cc2c(Cl)c[n+]([O-])cc2Cl)OC(=O)c2ccc(CNC(C(=O)OC[C@H]3CN4CCC3CC4)c3ccccc3)s2)cc1OC (stereo in doubt; 91g)				3.16 nM	IC50 [1]: 20 nM
COc1ccc([C@H](Cc2c(Cl)c[n+]([O-])cc2Cl)OC(=O)c2ccc(CNC(C(=O)OCCN(C)C)c3ccccc3)s2)cc1OC (stereo in doubt; 92j)	0.398 nM		0.631 nM		IC50 [1]: 12.6 nM
COc1cc([C@H](Cc2c(Cl)c[n+]([O-])cc2Cl)OC(=O)c2ccc(CN(C(=O)O[C@H]3CN4CCC3CC4)c3ccccc3F)s2)ccc1OC(F)F	0.251 nM	8.2			solubility kinetic at 2 h [3]: < 5 µM
COc1ccc([C@H](Cc2c(Cl)c[n+]([O-])cc2Cl)OC(=O)c2ccc(CN(C(=O)O[C@H]3CN4CCC3CC4)c3cccc(C(F)F)c3)s2)cc1OC	3.16 nM	8.8	0.316 nM	0.2 nM	
CC(C)Oc1cc([C@H](Cc2c(Cl)c[n+]([O-])cc2Cl)OC(=O)c2ccc(CN(C(=O)O[C@H]3CN4CCC3CC4)c3ccccc3F)s2)ccc1OC(F)F	0.316 nM	7.5			solubility kinetic at 2 h [3]: < 5 µM
COc1ccc([C@H](Cc2c(Cl)c[n+]([O-])cc2Cl)OC(=O)c2cccc(CNC(C(=O)O[C@H]3CN4CCC3CC4)c3ccccc3)c2)cc1OC (stereo in doubt; 90)	0.2 nM	9.1	7.94 nM		pIC50 [2]: 8.6
COc1ccc([C@H](Cc2c(Cl)c[n+]([O-])cc2Cl)OC(=O)c2ccc(CN(C(=O)O[C@H]3CN4CCC3CC4)c3ccccc3)cc2F)cc1OC	0.158 nM	8.6	2.51 nM	0.126 nM	
COc1ccc([C@H](Cc2c(Cl)c[n+]([O-])cc2Cl)OC(=O)c2ccc(CN(C)C(C(=O)O[C@H]3CN4CCC3CC4)c3ccccc3)s2)cc1OC (stereo in doubt; 91c)	0.631 nM		2 nM	3.16 nM	
COc1ccc([C@H](Cc2c(Cl)c[n+]([O-])cc2Cl)OC(=O)c2ccc(F)c(CN(C(=O)O[C@H]3CN4CCC3CC4)c3ccccc3)c2)cc1OC	0.2 nM	9	7.94 nM	2 nM	
COc1ccc([C@H](Cc2c(Cl)c[n+]([O-])cc2Cl)OC(=O)c2ccc(CNC(C(=O)OC3C[C@H]4CC[C@H](C3)N4C)c3ccccc3)s2)cc1OC (stereo in doubt; 91d)	0.501 nM		1 nM	2.51 nM	IC50 [1]: 10 nM
COc1ccc([C@H](Cc2c(Cl)c[n+]([O-])cc2Cl)OC(=O)c2ccc(CNC(C(=O)OC[C@H]3CCN3C)c3ccccc3)s2)cc1OC (stereo in doubt; 91i)					IC50 [1]: 20 nM; pIC50 [2]: 8.1
COc1ccc([C@H](Cc2c(Cl)c[n+]([O-])cc2Cl)OC(=O)c2cccc(CNC(C(=O)O[C@H]3CN4CCC3CC4)c3ccccc3)c2)cc1OC (stereo in doubt; 86a)	0.398 nM	8.2			pIC50 [7]: 9.5
O=C(O[C@@H](Cc1c(Cl)c[n+]([O-])cc1Cl)c1ccc(OC(F)F)c(OCC2CC2)c1)c1cccc(NC(C(=O)O[C@H]2CN3CCC2CC3)c2ccccc2)c1 (some centres not stated)	0.794 nM	< 6			pIC50 [7]: 9
COc1ccc([C@H](Cc2c(Cl)c[n+]([O-])cc2Cl)OC(=O)c2cccc(S(=O)(=O)NC(C(=O)O[C@H]3CN4CCC3CC4)c3ccccc3)c2)cc1OC (some centres not stated)	0.631 nM	8.2			pIC50 [7]: 9.6
COc1ccc([C@H](Cc2c(Cl)c[n+]([O-])cc2Cl)OC(=O)c2ccc(CN(C(=O)O[C@H]3CN4CCC3CC4)c3cccc(O)c3)s2)cc1OC	0.316 nM	9	0.794 nM	0.398 nM	
COc1ccc([C@H](Cc2c(Cl)c[n+]([O-])cc2Cl)OC(=O)c2ccc(CNC(C(=O)O[C@H]3CN4CCC3CC4)c3ccccc3F)s2)cc1OC (stereo in doubt; 91b)	0.1 nM	8.6	0.631 nM	1 nM	

Compound	Ki [4]	pIC50 [5]	IC50 [6]	IC50 [2]	also measured
O=C(O[C@@H](Cc1c(Cl)c[n+]([O-])cc1Cl)c1ccc(OC(F)F)c(OCC2CC2)c1)c1cccc(CNC(C(=O)O[C@H]2CN3CCC2CC3)c2ccccc2)c1 (some centres not stated)	0.631 nM	7.6			pIC50 [7]: 9.5
COc1ccc([C@H](Cc2c(Cl)c[n+]([O-])cc2Cl)OC(=O)c2ccc(CNC(C(=O)OC[C@H]3CN4CCC3CC4)c3ccccc3)s2)cc1OC (stereo in doubt; 92g)					IC50 [1]: 3.16 nM; pIC50 [2]: 8.4
COc1ccc([C@H](Cc2c(Cl)c[n+]([O-])cc2Cl)OC(=O)c2ccc(CNC(C(=O)O[C@@H]3CCN(C)C3)c3ccccc3)s2)cc1OC (stereo in doubt; 91f)	7.94 nM		3.16 nM	3.98 nM	IC50 [1]: 1 nM
O=C(O[C@@H](Cc1c(Cl)c[n+]([O-])cc1Cl)c1ccc(OC(F)F)c(OCC2CC2)c1)c1cccc(S(=O)(=O)NC(C(=O)O[C@H]2CN3CCC2CC3)c2ccccc2)c1 (some centres not stated)	1.26 nM	7.3			pIC50 [7]: 10
COc1ccc([C@H](Cc2c(Cl)c[n+]([O-])cc2Cl)OC(=O)c2ccc(CNC(C(=O)OC3C[C@H]4CC[C@H](C3)N4C)c3ccccc3)s2)cc1OC (stereo in doubt; 92d)	10 nM				pIC50 [6]: 9
COc1ccc([C@H](Cc2c(Cl)c[n+]([O-])cc2Cl)OC(=O)c2ccc(CN(C(=O)O[C@H]3CN4CCC3CC4)c3ccccc3)cc2)cc1OC	0.158 nM	8.7	2 nM	2.51 nM	
COc1ccc([C@H](Cc2c(Cl)c[n+]([O-])cc2Cl)OC(=O)c2cccc(NC(C(=O)O[C@H]3CN4CCC3CC4)c3ccccc3)c2)cc1OC (some centres not stated)	0.398 nM	7.7			pIC50 [7]: 9.8
O=C(O[C@@H](Cc1c(Cl)c[n+]([O-])cc1Cl)c1ccc(OC(F)F)c(OCC2CC2)c1)c1cccc(CN(C(=O)O[C@H]2CN3CCC2CC3)c2ccccc2)c1	1.26 nM	6.5			pIC50 [7]: 9.9
COc1ccc([C@H](Cc2c(Cl)c[n+]([O-])cc2Cl)OC(=O)c2ccc(CN(C(=O)O[C@H]3CN4CCC3CC4)c3cccc(F)c3)s2)cc1OC	0.2 nM	8.1	1 nM	0.631 nM	
COc1ccc([C@H](Cc2c(Cl)c[n+]([O-])cc2Cl)OC(=O)c2ccc(CNC(C(=O)OC3CCN(C)CC3)c3ccccc3)s2)cc1OC (stereo in doubt; 91e)	10 nM		1 nM	1.58 nM	IC50 [1]: 20 nM
COc1ccc([C@H](Cc2c(Cl)c[n+]([O-])cc2Cl)OC(=O)c2ccc(CN(C)C(C(=O)O[C@H]3CN4CCC3CC4)c3ccccc3)s2)cc1OC (stereo in doubt; 92c)			3.16 nM		pKi [4]: 9.2; pIC50 [2]: 8.7
COc1ccc([C@H](Cc2c(Cl)c[n+]([O-])cc2Cl)OC(=O)c2cccc(CNC(C(=O)O[C@H]3CN4CCC3CC4)c3ccccc3)c2)cc1OC (stereo in doubt; 89)	0.158 nM	9	3.98 nM	1.26 nM	
COc1ccc([C@H](Cc2c(Cl)c[n+]([O-])cc2Cl)OC(=O)c2ccc(CNC(C(=O)OCC3CCN(C)CC3)c3ccccc3)s2)cc1OC (stereo in doubt; 91h)					pIC50 [2]: 8.4
COc1ccc([C@H](Cc2c(Cl)c[n+]([O-])cc2Cl)OC(=O)Cc2ccc(CN(C(=O)O[C@H]3CN4CCC3CC4)c3ccccc3)cc2)cc1OC	0.316 nM		10 nM		
CCOc1cc([C@H](Cc2c(Cl)c[n+]([O-])cc2Cl)OC(=O)c2ccc(CN(C(=O)O[C@H]3CN4CCC3CC4)c3ccccc3F)s2)ccc1OC(F)F	0.316 nM	8.3			solubility kinetic at 2 h [3]: < 5 µM
COc1ccc([C@H](Cc2c(Cl)c[n+]([O-])cc2Cl)OC(=O)c2ccc(CN(C(=O)O[C@H]3CN4CCC3CC4)c3cccnc3)s2)cc1OC	7.94 nM				
COc1ccc([C@H](Cc2c(Cl)c[n+]([O-])cc2Cl)OC(=O)c2cccc(CN(C(=O)O[C@H]3CN4CCC3CC4)c3ccccc3)c2)cc1OC	0.316 nM	9.2	6.31 nM	5.01 nM	pIC50 [7]: 9
COc1ccc([C@H](Cc2c(Cl)c[n+]([O-])cc2Cl)OC(=O)c2ccc(CNC(C(=O)O[C@H]3CN4CCC3CC4)c3ccccc3F)s2)cc1OC (stereo in doubt; 92b)	0.158 nM	8.5			pIC50 [6]: 9.2; pIC50 [2]: 8.9
COc1ccc([C@H](Cc2c(Cl)c[n+]([O-])cc2Cl)OC(=O)c2ccc(CN(C(=O)O[C@H]3CN4CCC3CC4)c3nccs3)s2)cc1OC	0.794 nM	8.4	0.631 nM	0.501 nM	
